{
  "source": "patent US20250101028A1",
  "about": "“HETEROCYCLIC COMPOUNDS, COMPOSITIONS THEREOF, AND METHODS OF TREATMENT THEREWITH” (BeiGene, Ltd., priority 2022, published 2025)",
  "data": [
    {"target": "T1, GST-tagged GDP-loaded KRAS G12V (amino acids 1-169) (Homo sapiens, UniProt P01116, G12V)", "T1 construct": "GST-tagged GDP-loaded KRAS G12V (amino acids 1-169); made in house; host or cells: E. coli", "T1 sequence (P01116 1-169 isoform P01116-2 G12V)": "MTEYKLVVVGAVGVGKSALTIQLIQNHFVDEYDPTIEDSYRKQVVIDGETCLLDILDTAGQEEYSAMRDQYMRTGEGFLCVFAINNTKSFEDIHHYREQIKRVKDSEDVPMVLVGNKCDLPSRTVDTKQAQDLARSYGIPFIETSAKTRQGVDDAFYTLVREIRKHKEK", "assay": "KRAS G12V probe displacement assay (TR-FRET)", "type": "binding", "details": "displacement of biotinylated probe 2 from GDP-loaded KRAS G12V", "method_in_brief": "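GST-tagged GDP-loaded KRAS 1-169 (WT 3 nM; G12V 2 nM final) preincubated 1 h at 24 °C with serially diluted compound in HEPES pH 7.5 buffer, then biotinylated probe added (probe 1 60 nM for WT; probe 2 2.5 nM for G12V), 1 h. Anti-GST-Tb/streptavidin-XL665 TR-FRET 665/620 ratio; IC50 by four-parameter fit.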", "units": {"IC50": "nM"}, "values": [
      {"smiles": "Nc1nc2c(-c3c(C(F)(F)F)cc4c(N5CCC6(CC5)CN(CCO)C(=O)O6)nc(OC[C@@]56CCCN5C[C@H](F)C6)nc4c3F)ccc(F)c2s1", "note": "[Example 93, 8-(7-(2-amino-7-fluorobenzo[d]thiazol-4-yl)-8-fluoro-2-(((2R,7aS)-2-fluorotetrahydro-1H-pyrrolizin-7a(5H)-yl)methoxy)-6-(trifluoromethyl)quinazolin-4-yl)-3-(2-hydroxyethyl)-1-oxa-3,8-diazaspiro[4.5]decan-2-one]", "IC50": 2.2},
      {"smiles": "Nc1nc2c(-c3c(C(F)(F)F)cc4c(N5CC[C@@H](F)C5)nc(OC[C@@]56CCCN5C[C@H](F)C6)nc4c3F)ccc(F)c2s1", "note": "[Example 51, 7-fluoro-4-(8-fluoro-4-((R)-3-fluoropyrrolidin-1-yl)-2-(((2R,7aS)-2-fluorotetrahydro-1H-pyrrolizin-7a(5H)-yl)methoxy)-6-(trifluoromethyl)quinazolin-7-yl)benzo[d]thiazol-2-amine]", "IC50": 11},
      {"smiles": "Nc1nc2c(-c3c(C(F)(F)F)cc4c(NC5CC6(COC6)C5)nc(OC[C@@]56CCCN5C[C@H](F)C6)nc4c3F)ccc(F)c2s1", "note": "[Example 23, 4-(4-((2-oxaspiro[3.3]heptan-6-yl)amino)-8-fluoro-2-(((2R,7aS)-2-fluorotetrahydro-1H-pyrrolizin-7a(5H)-yl)methoxy)-6-(trifluoromethyl)quinazolin-7-yl)-7-fluorobenzo[d]thiazol-2-amine]", "IC50": 23},
      {"smiles": "N#CC1CCCCN(c2nc(OC[C@@]34CCCN3C[C@H](F)C4)nc3c(F)c(-c4ccc(F)c5sc(N)nc45)c(C(F)(F)F)cc23)C1", "note": "(stereo partly drawn) [Example 83, 1-(7-(2-amino-7-fluorobenzo[d]thiazol-4-yl)-8-fluoro-2-(((2R,7aS)-2-fluorotetrahydro-1H-pyrrolizin-7a(5H)-yl)methoxy)-6-(trifluoromethyl)quinazolin-4-yl)azepane-3-carbonitrile]", "IC50": 6.4},
      {"smiles": "COCCN1CC2(CCN(c3nc(OC[C@@]45CCCN4C[C@H](F)C5)nc4c(F)c(-c5ccc(F)c6sc(N)nc56)c(C(F)(F)F)cc34)CC2)OC1=O", "note": "[Example 94, 8-(7-(2-amino-7-fluorobenzo[d]thiazol-4-yl)-8-fluoro-2-(((2R,7aS)-2-fluorotetrahydro-1H-pyrrolizin-7a(5H)-yl)methoxy)-6-(trifluoromethyl)quinazolin-4-yl)-3-(2-methoxyethyl)-1-oxa-3,8-diazaspiro[4.5]decan-2-one]", "IC50": 2.5},
      {"smiles": "Cc1cc(N)nc(-c2c(Cl)cc3c(N4CCC5(CC4)CN(C)C(=O)O5)nc(OC[C@@]45CCCN4C[C@H](F)C5)nc3c2F)c1C(F)(F)F", "note": "[Example 106, 8-(7-(6-amino-4-methyl-3-(trifluoromethyl)pyridin-2-yl)-6-chloro-8-fluoro-2-(((2R,7aS)-2-fluorotetrahydro-1H-pyrrolizin-7a(5H)-yl)methoxy)quinazolin-4-yl)-3-methyl-1-oxa-3,8-diazaspiro[4.5]decan-2-one]", "IC50": 23},
      {"smiles": "C[C@H]1COCCN1c1nc(OC[C@@]23CCCN2C[C@H](F)C3)nc2c(F)c(-c3cc(N)cc(Cl)c3C(F)(F)F)ncc12", "note": "[Example 114, 3-chloro-5-(8-fluoro-2-(((2R,7aS)-2-fluorotetrahydro-1H-pyrrolizin-7a(5H)-yl)methoxy)-4-((S)-3-methylmorpholino)pyrido[4,3-d]pyrimidin-7-yl)-4-(trifluoromethyl)aniline]", "IC50": 9.2},
      {"smiles": "C[C@@H]1COCCN1c1nc(OC[C@@]23CCCN2C[C@H](F)C3)nc2c(F)c(-c3cc(N)cc(Cl)c3C(F)(F)F)ncc12", "note": "[Example 115, 3-chloro-5-(8-fluoro-2-(((2R,7aS)-2-fluorotetrahydro-1H-pyrrolizin-7a(5H)-yl)methoxy)-4-((R)-3-methylmorpholino)pyrido[4,3-d]pyrimidin-7-yl)-4-(trifluoromethyl)aniline]", "IC50": 6.5},
      {"smiles": "CS(=O)(=O)C1CN(c2nc(OC[C@@]34CCCN3C[C@H](F)C4)nc3c(F)c(-c4ccc(F)c5sc(N)nc45)c(C(F)(F)F)cc23)C1", "note": "[Example 44, 7-fluoro-4-(8-fluoro-2-(((2R,7aS)-2-fluorotetrahydro-1H-pyrrolizin-7a(5H)-yl)methoxy)-4-(3-(methylsulfonyl)azetidin-1-yl)-6-(trifluoromethyl)quinazolin-7-yl)benzo[d]thiazol-2-amine]", "IC50": 14},
      {"smiles": "Nc1nc2c(-c3c(C(F)(F)F)cc4c(NC5CCC(F)C5)nc(OC[C@@]56CCCN5C[C@H](F)C6)nc4c3F)ccc(F)c2s1", "note": "(stereo in doubt) [Example 25, 7-fluoro-4-(8-fluoro-4-(((1S,3R)-3-fluorocyclopentyl)amino)-2-(((2R,7aS)-2-fluorotetrahydro-1H-pyrrolizin-7a(5H)-yl)methoxy)-6-(trifluoromethyl)quinazolin-7-yl) benzo[d]thiazol-2-amine]", "IC50": 38},
      {"smiles": "CC(=O)N1C[C@@H]2[C@H](C1)[C@H]2Nc1nc(OC[C@@]23CCCN2C[C@H](F)C3)nc2c(F)c(-c3ccc(F)c4sc(N)nc34)c(C(F)(F)F)cc12", "note": "[Example 9, 1-((1R,5S,6s)-6-((7-(2-amino-7-fluorobenzo[d]thiazol-4-yl)-8-fluoro-2-(((2R,7aS)-2-fluorotetrahydro-1H-pyrrolizin-7a(5H)-yl)methoxy)-6-(trifluoromethyl)quinazolin-4-yl)amino)-3-azabicyclo[3.1.0]hexan-3-yl)ethan-1-one]", "IC50": 2.5},
      {"smiles": "Nc1nc2c(-c3c(C(F)(F)F)cc4c(N5CCC6(CC5)CNC(=O)C6)nc(OC[C@@]56CCCN5C[C@H](F)C6)nc4c3F)ccc(F)c2s1", "note": "[Example 96, 8-(7-(2-amino-7-fluorobenzo[d]thiazol-4-yl)-8-fluoro-2-(((2R,7aS)-2-fluorotetrahydro-1H-pyrrolizin-7a(5H)-yl)methoxy)-6-(trifluoromethyl)quinazolin-4-yl)-2,8-diazaspiro[4.5]decan-3-one]", "IC50": 1.5},
      {"smiles": "Nc1nc2c(-c3c(C(F)(F)F)cc4c(N5CC6CC5C6)nc(OC[C@@]56CCCN5C[C@H](F)C6)nc4c3F)ccc(F)c2s1", "note": "[Example 62, 4-(4-(2-azabicyclo[2.1.1]hexan-2-yl)-8-fluoro-2-(((2R,7aS)-2-fluorotetrahydro-1H-pyrrolizin-7a(5H)-yl)methoxy)-6-(trifluoromethyl)quinazolin-7-yl)-7-fluorobenzo[d]thiazol-2-amine]", "IC50": 22},
      {"smiles": "CO[C@H]1C[C@@H](Nc2nc(OC[C@@]34CCCN3C[C@H](F)C4)nc3c(F)c(-c4ccc(F)c5sc(N)nc45)c(C(F)(F)F)cc23)C1", "note": "[Example 13, 7-fluoro-4-(8-fluoro-2-(((2R,7aS)-2-fluorotetrahydro-1H-pyrrolizin-7a(5H)-yl)methoxy)-4-(((cis)-3-methoxycyclobutyl)amino)-6-(trifluoromethyl)quinazolin-7-yl)benzo[d]thiazol-2-amine]", "IC50": 20},
      {"smiles": "Nc1nc2c(-c3c(C(F)(F)F)cc4c(N5CC[C@@H]5CO)nc(OC[C@@]56CCCN5C[C@H](F)C6)nc4c3F)ccc(F)c2s1", "note": "[Example 49, ((2R)-1-(7-(2-amino-7-fluorobenzo[d]thiazol-4-yl)-8-fluoro-2-(((2R,7aS)-2-fluorotetrahydro-1H-pyrrolizin-7a(5H)-yl)methoxy)-6-(trifluoromethyl)quinazolin-4-yl)azetidin-2-yl) methanol]", "IC50": 3},
      {"smiles": "Nc1nc2c(-c3c(C(F)(F)F)cc4c(NC5CC5c5ccccc5)nc(OC[C@@]56CCCN5C[C@H](F)C6)nc4c3F)ccc(F)c2s1", "note": "(relative stereo) [Example 5, 7-fluoro-4-(8-fluoro-2-(((2R,7aS)-2-fluorotetrahydro-1H-pyrrolizin-7a(5H)-yl)methoxy)-4-(((trans)-2-phenylcyclopropyl)amino)-6-(trifluoromethyl)quinazolin-7-yl)benzo[d]thiazol-2-amine]", "IC50": 45},
      {"smiles": "CC1CC(C#N)CCN1c1nc(OC[C@@]23CCCN2C[C@H](F)C3)nc2c(F)c(-c3cc(N)cc(Cl)c3C(F)(F)F)ncc12", "note": "(stereo partly drawn) [Example 124, 1-(7-(5-amino-3-chloro-2-(trifluoromethyl)phenyl)-8-fluoro-2-(((2R,7aS)-2-fluorotetrahydro-1H-pyrrolizin-7a(5H)-yl)methoxy)pyrido[4,3-d]pyrimidin-4-yl)-2-methylpiperidine-4-carbonitrile]", "IC50": 15},
      {"smiles": "C[C@@H]1CCN(c2nc(OC[C@@]34CCCN3C[C@H](F)C4)nc3c(F)c(-c4ccc(F)c5sc(N)nc45)c(C(F)(F)F)cc23)C1", "note": "[Example 54, 7-fluoro-4-(8-fluoro-2-(((2R,7aS)-2-fluorotetrahydro-1H-pyrrolizin-7a(5H)-yl)methoxy)-4-((R)-3-methylpyrrolidin-1-yl)-6-(trifluoromethyl)quinazolin-7-yl)benzo[d]thiazol-2-amine]", "IC50": 41},
      {"smiles": "Cc1cc(N)nc(-c2c(Cl)cc3c(N4CC[C@@H](C#N)C[C@@H]4C)nc(OC[C@@]45CCCN4C[C@H](F)C5)nc3c2F)c1C(F)(F)F", "note": "(mixture of isomers) [Example 104, 1-(7-(6-amino-4-methyl-3-(trifluoromethyl)pyridin-2-yl)-6-chloro-8-fluoro-2-(((2R,7aS)-2-fluorotetrahydro-1H-pyrrolizin-7a(5H)-yl)methoxy)quinazolin-4-yl)-trans-2-methylpiperidine-4-carbonitrile]", "IC50": 7},
      {"smiles": "N#CCC1CN(c2nc(OC[C@@]34CCCN3C[C@H](F)C4)nc3c(F)c(-c4ccc(F)c5sc(N)nc45)c(C(F)(F)F)cc23)C1", "note": "[Example 40, 2-(1-(7-(2-amino-7-fluorobenzo[d]thiazol-4-yl)-8-fluoro-2-(((2R,7aS)-2-fluorotetrahydro-1H-pyrrolizin-7a(5H)-yl)methoxy)-6-(trifluoromethyl)quinazolin-4-yl)azetidin-3-yl)acetonitrile]", "IC50": 12},
      {"smiles": "Nc1nc2c(-c3c(C(F)(F)F)cc4c(NC5CCC5)nc(OC[C@@]56CCCN5C[C@H](F)C6)nc4c3F)ccc(F)c2s1", "note": "[Example 10, 4-(4-(cyclobutylamino)-8-fluoro-2-(((2R,7aS)-2-fluorotetrahydro-1H-pyrrolizin-7a(5H)-yl)methoxy)-6-(trifluoromethyl)quinazolin-7-yl)-7-fluorobenzo[d]thiazol-2-amine]", "IC50": 19}
    ]}
  ]
}
